# Reference: patent publication US6437177B1, “α-hydroxy, -amino, and halo derivatives of β-sulfonyl hydroxamic acids as matrix metallopropteinases inhibitors” (priority 1997, dated 2002)
# Target: Stromelysin (Homo sapiens, UniProt P08254)
# Assay: MMP inhibition, particle concentration fluorescence assay (stromelysin)
# Type: biochemical
# Details: in vitro; fluorescein/biotin substrate; MMP buffer pH 7.5; room temperature
# Method: Inhibitory activity is evaluated in one or more of the MMP enzymes (stromelysin, gelatinase, and collagenase) in vitro using particle concentration fluorescence assay. An inhibitor binds to MMP enzymes which prevents the degradation of a substrate by stromelysin, gelatinase, or coilagenase. The substrate has attached to it a fluorescein and a biotin moiety. The intact substrate then binds to an avidin-coated particle via the biotin moiety. Once the particle is washed and dried, a fluorescent signal is generated since the fluorescent group is attached to the particle. Without an inhibitor present, the substrate is degraded by MMP enzymes and the fluorescein group is removed, therefore, no fluorescent signal can be detected. Testing compounds are dissolved in DMSO to the desired concentration, then the solutions are diluted to 1:5 with MMP buffer (50 mM Tris-HCl, pH 7.5; 150 mM NaCl; 0.02% NaN3). Serial two-fold dilutions of each compound are prepared. A concentrated, activated enzyme solution is transferred into each plate of the testing compounds, and the mixture is incubated at room temperature for 15 minutes. Thawed MMP substrate is then added into all plates, and the plates are incubated in the dark for 1-3 hours at room temperature. At this point, the substrate mixture is mixed with 0.1% avidin-coated polystyrene particles. After 15 minutes, the fluorescence values are measured following filtration and washing of the beads. Ki values are then calculated.
# Sequence of Stromelysin (P08254 100-477): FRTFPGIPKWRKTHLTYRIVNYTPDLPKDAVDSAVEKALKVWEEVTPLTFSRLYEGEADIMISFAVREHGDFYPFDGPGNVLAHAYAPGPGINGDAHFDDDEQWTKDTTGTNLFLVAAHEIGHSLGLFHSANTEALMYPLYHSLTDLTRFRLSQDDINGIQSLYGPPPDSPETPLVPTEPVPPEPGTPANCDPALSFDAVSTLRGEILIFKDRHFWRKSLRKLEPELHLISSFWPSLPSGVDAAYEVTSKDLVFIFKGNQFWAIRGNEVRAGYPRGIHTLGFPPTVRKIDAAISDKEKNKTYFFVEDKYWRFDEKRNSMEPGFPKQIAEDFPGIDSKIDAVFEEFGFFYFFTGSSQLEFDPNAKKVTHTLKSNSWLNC
row,SMILES,Ki
1,"COc1ccc(S(=O)(=O)CC(O)(CS(=O)(=O)c2ccc(F)cc2)C(=O)NO)cc1 (stereo not shown) [Example 2, N-Hydroxy-2-hydroxy-2-[(4-methoxybenzenesulfonyl)methyl]-3-(4-fluorobenzenesulfonyl)-propionamide]",180 nM
2,"COc1ccc(S(=O)(=O)CC(O)(CS(=O)(=O)c2ccc(-c3ccccc3)cc2)C(=O)NO)cc1 (single isomer, unassigned) [Example 1, Enantiomer B, N-Hydroxy-2-hydroxy-2-[(4-methoxybenzenesulfonyl)methyl]-3-(4-phenylbenzenesulfonyl)-propionamide]",80 nM
3,"COc1ccc(S(=O)(=O)CC(O)(CS(=O)(=O)c2ccc(-c3ccccc3)cc2)C(=O)NO)cc1 (racemic) [Example 1, N-Hydroxy-2-hydroxy-2-[(4-methoxybenzenesulfonyl)methyl]-3-(4-phenylbenzenesulfonyl)-propionamide]",74 nM
4,COc1ccc(S(=O)(=O)CC(O)(CS(=O)(=O)c2ccc(OC)cc2)C(=O)NO)cc1 [Example 4],39 nM

# More lines, in order of falling Ki, values ahead:
row,Ki,SMILES
1,350 nM,"COc1ccc(S(=O)(=O)CC(O)(CNC(=O)C2CCCC2)C(=O)NO)cc1 (stereo not shown) [Example 6, N-Hydroxy-2-hydroxy-2-[(4-methoxybenzenesulfonyl)methyl]-3-[N-(cyclopentylcarbonyl)amino]-propionamide]"
2,280 nM,"COc1ccc(C(=O)NCC(O)(CS(=O)(=O)c2ccc(OC)cc2)C(=O)NO)cc1 (stereo not shown) [Example 7, N-Hydroxy-2-hydroxy-2-[(4-methoxybenzenesulfonyl)methyl]-3-(N-(4-methoxybenzenecarbonyl)amino)-propionamide]"
3,240 nM,COc1ccc(S(=O)(=O)CC(O)(CNC(=O)c2ccccc2)C(=O)NO)cc1 (stereo not shown) [Example 5]
4,46 nM,"CCCCc1ccc(S(=O)(=O)CC(O)(CS(=O)(=O)c2ccc(OC)cc2)C(=O)NO)cc1 (stereo not shown) [Example 3, N-Hydroxy-2-hydroxy-2-[(4-methoxybenzenesulfonyl)methyl]-3-(4-n-butylbenzenesulfonyl)-propionamide]"
5,21 nM,"COc1ccc(S(=O)(=O)CC(O)(CS(=O)(=O)c2ccc(-c3ccccc3)cc2)C(=O)NO)cc1 (single isomer, unassigned) [Example 1, Enantiomer A, N-Hydroxy-2-hydroxy-2-[(4-methoxybenzenesulfonyl)methyl]-3-(4-phenylbenzenesulfonyl)-propionamide]"

# System: not given
# Assay: not given
# Details: not given
row,melting point,SMILES
1,75 to 80 °C,COc1ccc(S(=O)(=O)CC(O)(CS(=O)(=O)c2ccc(OC)cc2)C(=O)NO)cc1 [Example 4]
